Measurements as given in article PMC6753678, “Fueling Open Innovation for Malaria Transmission-Blocking Drugs: Hundreds of Molecules Targeting Early Parasite Mosquito Stages” (Frontiers in Microbiology, 2019).
Read-outs that look alike come from different tables or passages of the source.

Key:
[1] = system: P. falciparum late stage (stages IV-V) gametocytes; test: P. falciparum late stage gametocyte ATP depletion assay (Pf GC-ATP); details: 1: YES; 0: NO
[2] = system: P. falciparum late stage (stages IV-V) gametocytes; design: method as in Almela et al 2016; details: TCAMS screen comparison; ref Almela et al 2016; read-out: Pf GCT ATP IC50; cited from earlier work
[3] = system: P. falciparum female gametocytes; design: method as in Miguel-Blanco et al 2017; details: TCAMS screen comparison; ref Miguel-Blanco et al 2017; read-out: Pf FGAA IC50; cited from earlier work
[4] = system: P. falciparum female gametocytes; test: P. falciparum female gametogenesis assay (Pf FGAA); details: 1: YES; 0: NO
HepG2 cells [5] = test: HepG2 cytotoxicity assay; details: HepG2 cytotoxicity unified across the three screens
In short: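 Cells at 2,500 per well in MEM with 10% fetal bovine serum and 1% NEAA were exposed to test compounds for 48 h at 37°C, 5% CO2. Viability was read by fluorescence, with percent inhibition calculated against 50 μM doxorubicin (positive) and DMSO (negative) controls.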

HepG2 cells [6] = details: cited from earlier work
[7] = value reported with the Pf FGAA screen, ref Miguel-Blanco et al 2017
[8] = value reported with the Pf GCT ATP screen, ref Almela et al 2016

SMILES | Is compound selective in assay? Pf GC-ATP active? [1] | IC50 [2] | IC50 [3] | Is compound selective in assay? Pf FGAA active? [4] | Unified cytotox (HepG2 cells [5]) | HepG2 cytoxicity (HepG2 cells [6]; [7]) | HepG2 cytoxicity (HepG2 cells [6]; [8])
Cl.c1ccc2c(C3CCN(CCCCOc4ccc5c(c4)CCN(CC4CC4)CC5)CC3)c[nH]c2c1 [TCMDC-136244] | 0 (0: NO) | 710 nM | 1150 nM | 0 (0: NO) | 5.98 µM | 5.15 µM | 6.81 µM
COc1ccc(Nc2nccc(-c3ccc4ccnc(NCCCCN)c4c3)n2)cc1 [TCMDC-136642] | 1 (1: YES) | 330 nM | 1510 nM | 0 (0: NO) | 14.29 µM | 14.29 µM | >25 µM
Cc1cc(OCCN2CCCCC2)ccc1NC(=O)c1cccc2c(=O)n(Cc3ccc(Cl)cc3)cnc12 [TCMDC-136727] | 0 (0: NO) | 950 nM | 1400 nM | 0 (0: NO) | 4.45 µM | 4.17 µM | 4.73 µM
CC(C)NCc1ccc(OCc2cccc(COc3ccc(CNC(C)C)cc3I)c2)c(I)c1.Cl [TCMDC-137259] | 1 (1: YES) | 210 nM | 1320 nM | 0 (0: NO) | 3.27 µM | 1.64 µM | 4.9 µM
CCCCOc1ccc(CNCCCCCCNCc2ccc(OCCCC)c3ccccc23)c2ccccc12.CS(=O)(=O)O [TCMDC-137281] | 0 (0: NO) | 2800 nM | 400 nM | 0 (0: NO) | 2.67 µM | 2.29 µM | 3.04 µM
CS(=O)(=O)O.FC(F)(F)COc1ccc(CCNCCCCNCCc2ccc(OCC(F)(F)F)c3ccccc23)c2ccccc12 [TCMDC-137282] | 1 (1: YES) | 26.7 nM | 200 nM | 1 (1: YES) | 2.33 µM | 1.66 µM | 3 µM
CS(=O)(=O)O.FC(F)(F)COc1ccc2ccccc2c1CCNCCCCNCCc1c(OCC(F)(F)F)ccc2ccccc12 [TCMDC-137317] | 0 (0: NO) | 1370 nM | 1010 nM | 0 (0: NO) | 2.70 µM | 2.09 µM | 3.3 µM
COc1cc2c(cc1CCNCCCCNCCc1cc3c(cc1OC)CCCC3)CCCC2.CS(=O)(=O)O [TCMDC-137319] | 1 (1: YES) | 80 nM | 890 nM | 0 (0: NO) | 1.86 µM | 1.86 µM | <1.56 µM
COc1ccc2c(c1CCNCCCCNCCc1c(OC)ccc3c1CCCC3)CCCC2.CS(=O)(=O)O [TCMDC-137324] | 0 (0: NO) | 150 nM | 640 nM | 0 (0: NO) | 1.21 µM | 1.68 µM | 0.75 µM
C=CCOc1ccc2ccccc2c1CNCCCCCCNCc1c(OCC=C)ccc2ccccc12.CS(=O)(=O)O [TCMDC-137340] | 0 (0: NO) | 250 nM | 700 nM | 0 (0: NO) | 1.93 µM | 1.93 µM | <1.56 µM
